Strand notation (5' to 3'): a small letter for the sugar, then the base; units joined by * are phosphorothioate-linked, units joined directly phosphodiester-linked; [ ] holds rarer units or linkages, { } end groups; capitals alone tell only the bases. e = 2'-O-(2-methoxyethyl) (MOE); l = locked nucleic acid (LNA); [5mC] = 5-methylcytosine; d = 2'-deoxy (DNA)
The substances below were run on human ABCB11 mRNA (assay: ASO treatment of primary human hepatocytes (PHH), ABCB11 mRNA by RT-qPCR normalized to B2M). Details: PHHs, Day 3, normalized to untreated PHHs.
Assay type: cell-based
How it was run: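 Plated primary human hepatocytes were treated 4 h post-thaw with ASO (e.g., 1.25–10 μM; initial screen 5 μM) in medium containing 0.3 mg/ml Matrigel for 72 hrs. Total RNA was reverse-transcribed and ABCB11 mRNA measured by Taqman RT-qPCR, normalized to B2M, with fold change versus untreated PHHs.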

“CO-3998: ASO targeting the paRNA regRNA RR63 (antisense eA*e[5mC]*e[5mC]*e[5mC]*e[5mC]*e[5mC]*e[5mC]*eT*e[5mC]*eA*e[5mC]*e[5mC]*eT*eT*eG*eGeT*eT*e[5mC]*e[5mC])” was tested, and the “upregulation of ABCB11 mRNA” value was “approximately 1.5 fold”.

Same assay, conditions: primary human hepatocytes, 5 μM ASO with PO-modifications, normalized to untreated hepatocytes

Compared with “CO-11244 (antisense eG*eT*eGeG*lAeG*e[5mC]eA*eAlA*e[5mC]eT*eAeG*lGe[5mC]*eAe[5mC]*eT*eG)”, “CO-12751 (antisense eG*eT*eG*eA*eGeG*e[5mC]*eA*eTe[5mC]*eA*eG*eGeT*eA*eA*eGeT*eT*e[5mC])” is lower in “ABCB11 FC mRNA (5 μM ASO vs. untreated)” value: 1.29 fold change for the first, 0.93 fold change for the second.

Compared with “CO-11199 (antisense eT*eG*eT*eTeTeTeG*e[5mC]*eT*eT*eG*eG*eT*e[5mC]eAeAeG*eA*eG*eG)”, “CO-11229 (antisense eG*eTlG*eG*eA*lGe[5mC]*eA*lA*eAe[5mC]*lT*eA*eGlG*e[5mC]*eA*l[5mC]eT*eG)” is higher in “ABCB11 FC mRNA (5 μM ASO vs. untreated)” value: 0.97 fold change for the first, 2.83 fold change for the second.

Compared with “CO-11217 (antisense eG*eTlG*eG*lA*eGl[5mC]*eA*lA*eAl[5mC]eT*lA*eGlG*e[5mC]*lA*e[5mC]eT*eG)”, “CO-12755 (antisense eG*eT*eGeA*eGeG*e[5mC]eA*eTe[5mC]*eAeG*eGeT*eAeA*eGeT*eT*e[5mC])” is lower in “ABCB11 FC mRNA (5 μM ASO vs. untreated)” value: 2.10 fold change for the first, 0.99 fold change for the second.

Same assay, conditions: primary human hepatocytes, 5 μM ASO, normalized to untreated PHHs (UNT)

Going from “CO-6974 (antisense eT*eG*eG*eG*eA*eA*eG*eT*eT*eT*eA*eA*eA*eA*eA*eA*eT*eG*eG*eG)” to “CO-6993 (antisense eT*eG*eG*eA*eT*lG*eT*eA*eG*eA*lT*eG*eA*eA*eT*lG*eG*e[5mC]*eA*eA)”, the “ABCB11 mRNA FC (5 μM ASO vs. UNT)” value falls from 1.394 fold change to 1.209 fold change.

Compared with “CO-6999 (antisense eG*eT*lG*eA*lG*eG*l[5mC]*eA*lT*e[5mC]*lA*eG*lGeT*lA*eA*lG*eT*eT*e[5mC])”, “CO-7040 (antisense eA*eA*eG*eA*eG*eG*eA*eA*eA*eG*eA*eA*e[5mC]*eT*eG*eG*e[5mC]*e[5mC]*eG*eG)” is higher in “ABCB11 mRNA FC (5 μM ASO vs. UNT)” value: 1.24 fold change for the first, 1.267 fold change for the second.

Going from “CO-4029 (antisense eA*eT*eA*e[5mC]*eT*eT*eG*eT*e[5mC]*eT*e[5mC]*eT*eG*e[5mC]eA*eA*eA*eT*e[5mC]*e[5mC])” to “CO-7098 (eA*eT*e[5mC]eT*eG*eG*dA*dA*dA*dA*dT*dA*dA*dT*dG*d[5mC]*e[5mC]*eT*eT*eT*e[5mC]*eT)”, the “ABCB11 mRNA FC (5 μM ASO vs. UNT)” value rises from 0.908 fold change to 1.04 fold change.

Going from “CO-7182: derivative ASO with additional chemical modifications based on parent ASO CO-4529 (antisense eG*eT*eG*lG*eA*eG*e[5mC]*lA*eA*eA*e[5mC]*lT*eA*eG*eG*l[5mC]*eA*e[5mC]*eT*eG)” to “CO-4059 (antisense eG*eT*eA*eA*eG*e[5mC]*eT*e[5mC]*eA*eG*eG*e[5mC]*eAeA*eA*eG*eG*eA*eG*eA)”, the “ABCB11 mRNA FC (5 μM ASO vs. UNT)” value falls from 1.572 fold change to 1.186 fold change.

Going from “CO-7199 (eA*eG*eG*eT*eG*eG*eA*dG*d[5mC]*dA*dA*dA*d[5mC]*dT*dA*dG*dG*e[5mC]*eA*e[5mC]*eT*eG*eA*eG; antisense)” to “CO-7020 (antisense eA*eA*eG*eT*eG*dA*dG*lG*d[5mC]*dA*lT*d[5mC]*dA*lG*dG*dT*lA*dA*dG*eT*eT*e[5mC]*e[5mC]*eT)”, the “ABCB11 mRNA FC (5 μM ASO vs. UNT)” value falls from 1.166 fold change to 1.133 fold change.

Going from “CO-4515 (antisense eG*e[5mC]*e[5mC]*e[5mC]*eA*eA*eA*eT*eG*eA*eG*eG*eT*eG*eA*eT*eA*e[5mC]*eA*eA)” to “CO-7197 (eG*eG*eT*eG*eG*dA*dG*d[5mC]*eA*dA*dA*d[5mC]*dT*eA*dG*dG*d[5mC]*eA*e[5mC]*eT*eG*eA; antisense)”, the “ABCB11 mRNA FC (5 μM ASO vs. UNT)” value rises from 0.978 fold change to 1.364 fold change.

Compared with “CO-7112 (eT*eA*e[5mC]*eA*eT*dT*dT*eA*dG*dA*eG*dA*d[5mC]*eA*dA*dA*eG*dA*dA*eT*e[5mC]*eG*e[5mC]*eT; antisense)”, “CO-6972 (antisense eA*eA*eA*eT*eG*eG*eG*eT*eG*eT*eG*eG*eA*eT*eG*eT*eA*eG*eA*eT)” is higher in “ABCB11 mRNA FC (5 μM ASO vs. UNT)” value: 0.98 fold change for the first, 1.207 fold change for the second.

First: CO-7109 (eA*e[5mC]*eA*eT*eT*lT*dA*dG*lA*dG*dA*d[5mC]*dA*lA*dA*dG*lA*eA*eT*e[5mC]*eG*e[5mC]; antisense)
Second: CO-7042 (antisense e[5mC]*eT*eT*eG*eG*eT*e[5mC]*eA*eA*eG*eA*eG*eG*eA*eA*eA*eG*eA*eA*e[5mC])
The “ABCB11 mRNA FC (5 μM ASO vs. UNT)” value of the first is lower: 1.043 fold change for the first, 1.132 fold change for the second.

First: CO-7011 (antisense eT*eG*eT*eG*eG*dA*dT*eG*dT*dA*eG*dA*dT*eG*dA*dA*eT*dG*dG*e[5mC]*eA*eA*eG*eG)
Second: CO-7035 (antisense e[5mC]*eA*eT*eT*eT*dA*dG*dA*dG*dA*d[5mC]*dA*dA*dA*dG*eA*eA*eT*e[5mC]*eG)
The “ABCB11 mRNA FC (5 μM ASO vs. UNT)” value of the first is higher: 1.284 fold change for the first, 1.047 fold change for the second.

Going from “CO-7013 (antisense eA*eG*eT*eG*eA*eG*dG*d[5mC]*dA*dT*d[5mC]*dA*dG*dG*dT*dA*eA*eG*eT*eT*e[5mC]*e[5mC])” to “CO-7032 (antisense eA*e[5mC]*eA*eA*eA*eG*eA*eA*eT*e[5mC]*eG*e[5mC]*eT*eG*eT*eG*eG*e[5mC]*eA*eG)”, the “ABCB11 mRNA FC (5 μM ASO vs. UNT)” value rises from 0.997 fold change to 1.093 fold change.

Going from “CO-4045 (antisense eA*e[5mC]*eT*eT*eT*eT*e[5mC]*eA*e[5mC]*eA*eA*e[5mC]*eT*eA*e[5mC]*eA*eG*eG*e[5mC]*e[5mC])” to “CO-7113 (TACATTTAGAGACAAAGAATCGCT; MOE/LNA gapmer, PS/PO backbone, 5-methylcytosine; listed as DNA; modified_base 1..24: mod_base = OTHER; note = Phosphorothioate linkage; modified_base 1..5: mod_base = OTHER; note = 2'-O-(2-methoxyethyl) ribonucleotide; misc_feature 1..5: note = RNA; misc_feature 6..7: note = DNA; misc_feature 8: note = RNA)”, the “ABCB11 mRNA FC (5 μM ASO vs. UNT)” value rises from 0.815 fold change to 1.179 fold change.

First: CO-7005 (antisense eG*eT*eG*eG*eA*eT*dG*dT*dA*dG*dA*dT*dG*dA*dA*dT*eG*eG*e[5mC]*eA*eA*eG)
Second: CO-7031 (antisense eA*eA*eA*eG*eA*eA*eT*e[5mC]*eG*e[5mC]*eT*eG*eT*eG*eG*e[5mC]*eA*eG*eT*eT)
The “ABCB11 mRNA FC (5 μM ASO vs. UNT)” value of the first is higher: 1.257 fold change for the first, 1.212 fold change for the second.

First: CO-4512 (antisense eA*eA*e[5mC]*eG*eGeAeAeG*eG*eGeTeT*eAeA*eA*eG*eG*eT*eA*eT)
Second: CO-4028 (antisense eT*eT*eA*eA*e[5mC]*eT*e[5mC]*eT*eT*eA*e[5mC]*eT*eT*eT*eG*eT*eG*eG*eA*eG)
The “ABCB11 mRNA FC (5 μM ASO vs. UNT)” value of the first is lower: 1.087 fold change for the first, 1.418 fold change for the second.

Going from “CO-7166: derivative ASO with additional chemical modifications based on parent ASO CO-4535 (antisense eG*eT*eT*eA*eT*eT*eA*eA*eT*eT*e[5mC]*eT*eA*e[5mC]*eA*eG*eA*eG*eG*eG)” to “CO-7060 (eT*e[5mC]*eT*eG*lG*dA*dA*dA*lA*dT*dA*dA*lT*dG*d[5mC]*e[5mC]*lT*eT*eT*e[5mC]; antisense)”, the “ABCB11 mRNA FC (5 μM ASO vs. UNT)” value falls from 1.517 fold change to 1.17 fold change.

First: CO-6975 (antisense e[5mC]*eT*eG*eA*eA*eG*eT*eG*eG*eA*eG*eG*eT*eG*eG*eT*eG*eG*eA*eA)
Second: CO-4014 (antisense eG*eA*eT*e[5mC]*eA*e[5mC]*eA*eA*eA*eT*eT*e[5mC]*eT*eA*e[5mC]*e[5mC]*e[5mC]*eT*eT*eG)
The “ABCB11 mRNA FC (5 μM ASO vs. UNT)” value of the first is higher: 1.34 fold change for the first, 1.003 fold change for the second.

Going from “CO-7208 (eT*eT*eT*eG*eG*e[5mC]*eG*eT*eT*eA*eT*eT*eA*eA*eT*eT*e[5mC]*eT*eA*e[5mC]*eA*eG*eA*eG; antisense)” to “CO-3998: ASO targeting the paRNA regRNA RR63 (antisense eA*e[5mC]*e[5mC]*e[5mC]*e[5mC]*e[5mC]*e[5mC]*eT*e[5mC]*eA*e[5mC]*e[5mC]*eT*eT*eG*eGeT*eT*e[5mC]*e[5mC])”, the “ABCB11 mRNA FC (5 μM ASO vs. UNT)” value falls from 1.339 fold change to 1.319 fold change.

Going from “CO-7046 (antisense eT*eG*eT*eG*eT*eT*eT*eT*eG*e[5mC]*eT*eT*eG*eG*eT*e[5mC]*eA*eA*eG*eA)” to “CO-7094 (eA*e[5mC]*e[5mC]*e[5mC]*l[5mC]*e[5mC]*e[5mC]*eT*l[5mC]*eA*e[5mC]e[5mC]*lT*eT*eG*eG*lT*eT*e[5mC]*e[5mC])”, the “ABCB11 mRNA FC (5 μM ASO vs. UNT)” value falls from 1.243 fold change to 0.993 fold change.

Compared with “CO-3992 (antisense eT*eG*eT*eT*eT*e[5mC]*e[5mC]*eT*eA*eG*eT*eA*e[5mC]*e[5mC]*eA*eA*eG*eA*eA*eT)”, “CO-4511 (antisense eG*eT*eG*eG*eG*eA*eG*eT*eG*eG*eT*eA*eA*eG*eA*eT*eT*eA*eG*e[5mC])” is lower in “ABCB11 mRNA FC (5 μM ASO vs. UNT)” value: 1.388 fold change for the first, 1.182 fold change for the second.

Compared with “CO-7186: derivative ASO with additional chemical modifications based on parent ASO CO-4535 (antisense eT*eG*eG*l[5mC]*eG*dT*dT*lA*dT*dT*dA*lA*dT*dT*d[5mC]*lT*eA*e[5mC]*eA*eG)”, “CO-4518 (antisense e[5mC]*eT*eA*e[5mC]*eT*eA*eG*eT*eT*eG*eT*eT*eA*e[5mC]*eA*e[5mC]*e[5mC]*eT*eT*eA)” is lower in “ABCB11 mRNA FC (5 μM ASO vs. UNT)” value: 1.85 fold change for the first, 0.981 fold change for the second.

Source: US20250320496A1, “MODULATION OF ABCB11 GENE TRANSCRIPTION USING ANTISENSE OLIGONUCLEOTIDES TARGETING REGULATORY RNAS” (CAMP4 Therapeutics Corporation, priority 2022, published 2025)
